Data taken from patent US12171813B2, “Methods of and compositions for reducing gene expression and/or activity” (Christiana Care Gene Editing Institute, Inc., priority 2021, dated 2024).

Test system: EGFR
Assay: cDNA PCR analysis of exon skipping / full-size transcript in EGFR
Format: cell-based, Human
Details: gRNA on its own; PDMR lung adenocarcinoma cells
Procedure: After CRISPR reactions, total RNA was prepared, and cDNA synthesized for PCR amplification of the target region from EGFR. PCR-amplified DNA was then analyzed by electrophoresis through a 1% agarose gel for 75 minutes at 80v. DNA was stained with SYBR Safe. Lanes 1 and 13: NEB 2 Log Ladder; Lane 2: Scrambled gRNA; Lane 3: EGFR 21-22 SureKill gRNA 11 alone; Lane 4: EGFR 21-22 SureKill gRNA 13 alone; Lane 5: EGFR 21-22 SureKill gRNA 16 alone; Lane 6: EGFR 21-22 SureKill gRNA 17 alone; Lane 7: EGFR 21-22 SureKill gRNA 19 alone; Lane 8: EGFR 21-22 SureKill gRNA 22 alone; Lane 9: EGFR 21-22 SureKill gRNA 23 alone; Lane 10: EGFR 21-22 SureKill gRNA 27 alone; Lane 11: EGFR 21-22 SureKill gRNA 28 alone; Lane 12: EGFR 21-22 SureKill gRNA 29 alone. On the left side of the image are markers indicating DNA size in bp.
After CRISPR reactions, total RNA was prepared, and cDNA synthesized for semi-quantitative PCR amplification of the target region from EGFR. PCR amplification was performed for 25 cycles. PCR-amplified DNA was then analyzed by electrophoresis through a 1% agarose gel for 75 minutes at 80v. DNA was stained with SYBR Safe. […]
Transfections were carried out using the Lonza Nuclefector 4d. […] RNPs were complexed at 250:50 pmol for 30 minutes prior to transfection, during which time cells were harvested and counted. […]

L858R gRNA: guide RNA TCAAGATCACAGATTTTGGG, SEQ ID NO:8, targets EGFR L858R mutation (listed as DNA, chemistry not given here)
exon skipping (cDNA analysis): induced some level of exon skipping
